In PubChem BioAssay (NCI):
“And” between values parts separate entries of the source, which are not always exact repeats. Equal values may be shown once.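 Where inhibition never reached the appropriate level, the endpoint shown equals the highest concentration tested. Otherwise, values were interpolated linearly from a five-concentration, 48-hour dose response in 96-well plates. Abbreviation: GI50, concentration required for 50% inhibition of growth. At the TGI there is no net growth.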

Columns and labels:
Test in all cases: NCI tumour cell line growth inhibition, 48 h
HCC-2998 colon = system: HCC-2998 colon
T-47D breast = system: T-47D breast
SK-MEL-2 melanoma = system: SK-MEL-2 melanoma
IGROV1 ovarian = system: IGROV1 ovarian
OVCAR-4 ovarian = system: OVCAR-4 ovarian
786-0 renal = system: 786-0 renal
SNB-75 CNS = system: SNB-75 CNS
MDA-MB-435 = system: MDA-MB-435
HL-60(TB) leukemia = system: HL-60(TB) leukemia
COLO 205 colon = system: COLO 205 colon

Row | Compound | GI50 (HCC-2998 colon) | TGI (HCC-2998 colon) | GI50 (T-47D breast) | TGI (T-47D breast) | GI50 (SK-MEL-2 melanoma) | TGI (SK-MEL-2 melanoma) | GI50 (IGROV1 ovarian) | TGI (IGROV1 ovarian) | GI50 (OVCAR-4 ovarian) [µM] | TGI (OVCAR-4 ovarian) | GI50 (786-0 renal) | TGI (786-0 renal) | GI50 (SNB-75 CNS) | TGI (SNB-75 CNS) | GI50 (MDA-MB-435) [µM] | TGI (MDA-MB-435) | GI50 (HL-60(TB) leukemia) | TGI (HL-60(TB) leukemia) | GI50 (COLO 205 colon) | TGI (COLO 205 colon)
1 | O=C(c1ccc(Cl)cc1Cl)N1CCN(C(=O)c2ccc(Cl)cc2Cl)C1=S | 22 µM | 44.4 µM | 19.5 µM | 62.6 µM | 18.4 µM | 36.2 µM | 21 µM | 46 µM | 25.8 | 80.9 µM | 18.6 µM | 42.3 µM | 22.3 µM | 61.7 µM | 16.4 | 33.7 µM | 16.6 µM | 34.1 µM | 21 µM | 37.7 µM
2 | CCCC(=O)Oc1ccc(/C(=C(\C)c2ccc(Cl)cc2)c2ccc(OCCN(CC)CC)cc2)cc1 | 2.67 µM | 7.06 µM | 1.39 µM | 4.88 µM | 2.83 µM | 5.93 µM | 6.99 µM | 21.6 µM | 4.16 | 19.4 µM | 1.74 µM | 3.5 µM | 12.8 µM | 30.2 µM | 1.78 | 3.68 µM | 2.23 µM | 5.52 µM | 1.82 µM | 3.66 µM
3 | CC(C)(C)OC(=O)NCCCCCCCCCn1c2c(c3ccccc3c1=O)C(=O)c1ccccc1-2 | > 100 µM | > 100 µM | 78.9 µM | > 100 µM | 27.9 µM | 71.1 µM | 36.1 µM | > 100 µM | > 100 | > 100 µM | 17.5 µM | 76.9 µM | 11.2 µM | 36.8 µM | > 100 | > 100 µM | > 100 µM | > 100 µM | > 100 µM | > 100 µM
4 | COc1cc(C[C@H]2COC(=O)[C@]2(O)Cc2ccc(OCc3ccccc3)c(OC)c2)ccc1OCc1ccccc1 | 26.5 µM | > 100 µM | 12.1 µM | > 100 µM | > 100 µM | > 100 µM | > 100 µM | > 100 µM | > 100 | > 100 µM | 85.4 µM | > 100 µM | > 100 µM | > 100 µM | 20.9 | > 100 µM | 28 µM | > 100 µM | 5.16 µM | 24.1 µM
5 | COc1ccc(C2=Nn3c(nnc3-c3ccc(F)c(Cl)c3)SC2)cc1 | > 100 µM | > 100 µM | > 100 µM | > 100 µM | > 100 µM | > 100 µM | > 100 µM | > 100 µM | > 100 | > 100 µM | > 100 µM | > 100 µM | 63.3 µM | > 100 µM | > 100 | > 100 µM | > 100 µM | > 100 µM | > 100 µM | > 100 µM
6 | CCc1nc(N)nc(N)c1C#CC(C)c1ccc(-c2ccncc2)cc1Cl (stereo not drawn) | 0.0869 µM and 0.134 µM | 4.07 µM and 13.1 µM | 0.0896 µM and 0.675 µM | 2.2 µM and 13.6 µM | 0.579 µM and 1.75 µM | 3.33 µM and 17.6 µM | < 0.005 µM and 0.0323 µM | 6.71 µM and 19.1 µM | – | 7.39 µM and 26.2 µM | 0.00501 µM and 0.0128 µM | 4.06 µM and 6.63 µM | 0.505 µM and 1.67 µM | 2.76 µM and 9.74 µM | – | 4.85 µM and 14.3 µM | 0.0226 µM and 0.0298 µM | 1.75 µM and 2.61 µM | 0.0387 µM and 0.0515 µM | 2.58 µM and 11.7 µM
7 | NCC(=O)Nc1ccc(Cl)cc1C(=O)c1ccc[nH]1 | – | > 100 µM | – | > 100 µM | – | > 100 µM | – | > 100 µM | – | > 94.9 µM | – | > 100 µM | – | > 100 µM | – | > 100 µM | – | > 100 µM | – | > 100 µM
8 | COc1ccc([N+](=O)[O-])c2c(NCCCN(C)C)c(C)c(C)nc12 | – | > 100 µM | – | > 100 µM | – | > 100 µM | – | > 100 µM | – | 63.5 µM | – | > 100 µM | – | > 100 µM | – | > 100 µM | – | > 100 µM | – | > 100 µM
9 | COc1ccc2[nH]c3c(C)c4c(c(C)c3c2c1)CN(C)C=C4 | – | 13.9 µM | – | 14.9 µM | – | 9.8 µM | – | 39.8 µM | – | 18.2 µM | – | 4.05 µM | – | 0.698 µM | – | 71.2 µM | – | 52.3 µM | – | 10.3 µM
